Reference: patent US20250230149A1, “MGLUR5 MODULATING COMPOUNDS, COMPOSITIONS, AND METHODS OF USE” (Allyx Therapeutics, Inc., priority 2022, published 2025)
Values after ≈ are worked out from the molar mass of the structure shown. “Also recorded” adds a separate entry of the source. Like-named read-outs stand apart in the source and are kept apart here.

Key:
mGluR5 = biological target: T1, mGluR5 (Mus musculus, UniProt Q3UVX5); test: [18F]FPEB PET displacement, receptor occupancy; assay type: in vivo, mice; conditions: for receptor occupancy at 3.75 mg/kg: mouse
T1 construct: from tissue; host or cells: brain of living mice
Experimental: A mGluR5 PET ligand, [^18F]FPEB, was used to assess receptor occupancy in mice. Mice were dosed orally twice a day with different doses of Compound 1. The available mGluR5 sites in brain were assessed in anesthetized mice both at peak 1 h after a single dose, and at trough after 7 days of twice daily (b.i.d.) oral dosing. The 3.75 mg/kg b.i.d. dose maintains >90% receptor occupancy throughout the dosing period. […] FPEB into the brain of mice. Displacement studies were conducted at expected trough levels and conducted at three dose levels: 0.42, 1.25 and 3.75 mg/kg. The 3.75 mg/kg dose was able to achieve >90% receptor occupancy at trough.

[1] = Approximate solubility (visual) in solvents; assay type: physicochemical; conditions: thermodynamic from solid, read-out: Approx. solubility
Experimental: The polymorph study protocol involved the use of a selection of solvents in which the solubility of Compound 1 was initially evaluated. Four typologies of experiments were then set up: temperature cycling, evaporative, long-term slurries and vapor diffusion. The number of solvents, solvent volumes and amount of material to be used in each experiment was based on solubility values and the kind of experiment.
Approximate solubility (visual) of Compound 1 was assessed in a list of solvents selected based on class diversity including solvent/water mixtures (Table 5). Compound 1 (5.0±0.2 mg) was weighted in vials and known aliquots of solvent were progressively added at 20° C. until a clear solution was visually observed; magnetic stirring was applied. The final solutions were stirred at room temperature overnight to evaluate any re-crystallization phenomena.

in vivo = test: in vivo
Experimental: Six cohorts of 6 participants each received a single oral dose of Compound 1 in the fasted state at the following dose levels: 10, 40, 70, 100, 150, and 200 mg and then were followed for 7 days; the starting dose of 10 mg was <10% of the 140 mg human equivalent dose (HED) of the rat NOAEL in the GLP 28-day rat study of 15 mg/kg.

CYP2C9 = biological target: T2, CYP2C9 (Homo sapiens, UniProt P11712); test: CYP450 reaction phenotyping in Supersomes, CYP2C9; assay type: in vitro ADME
T2 construct: purchased
Experimental: (§1) In Vitro CYP450 Reaction Phenotyping Study in Supersomes™ Over-Expressing Human CYP Enzymes
(§2) The CYPP450 enzymes involved in the Phase I metabolism of Compound 1 Form A were investigated in vitro. Compound 1 Form A was metabolized by CYP1A2, CYP2D6 and CYP3A4 and with T1/2 values of 64, 14, and 176 min, respectively, and CLint of 0.261, 0.984 and 0.0786 μL/min/pmol CYP, respectively. No evidence of Compound 1 metabolism by CYP2B6, CYP2C8, CYP2C9 and CYP2C19 was observed.

CYP2C19 = CYP2C19 (Homo sapiens, UniProt P33261); test: CYP450 reaction phenotyping in Supersomes, CYP2C19; assay type: in vitro ADME
Experimental: as §1, §2

dKI mice = test: SV2A PET imaging of synaptic density in APPNLGF/MAPT (dKI) mouse model; assay type: in vivo; conditions: 12 months of age, one-month treatment, 3.75 mg/kg q12 oral
Experimental: The objective of this study was to assess synaptic density of control and Amyloid Precursor Protein carrying NL-G-F mutations/Microtubule-associated protein tau (APP^NLGF/MAPT) (dKI—double knock-in) mice before and after treatment with Compound 1. Vehicle (95% PEG-400/5% Solutol) or Compound 1 at 7.5 mg/kg/day (3.75 mg/kg q12) was given to control and dKI mice for at least 28 days by oral administration.
To further maximize translational relevance, in other studies mice were aged to the point that synapse loss was detectable using SV2A PET. At 12 months of age, synapse density, as measured by hippocampal/brainstem [^18F]SDM-8 SUVR-1, was reduced in dKI mice relative to wild-type.

C57/BI6J mice = conditions: single 7.5 mg/kg dose; cited from earlier work
neurons and glia = test: Single nuclei transcriptomics; assay type: in vivo, mice; conditions: neurons vs glia
From the text: Compound 1 (e.g., Form A) prevented Alzheimer's triggered aberrant synaptic signaling while preserving physiological Glu activation. Studies have been conducted to show oral Compound 1 effectively occupied brain mGluR5 sites visualized by [^18F]FPEB PET at doses 250-fold below adverse effect levels in rodent and non-human primate. […] Production of the microglial mediator, C1q, was not altered by Compound 1, but Alzheimer-gene-dependent C1q localization to synapses and synaptic engulfment were prevented. Thus, selective modulation of mGluR5 reversed neuronal gene expression changes to protect synapses from damage by microglial mediators.

[2] = biological target: aryl hydrocarbon receptor (AhR) (Rattus norvegicus, UniProt P41738); test: AhR receptor activation, rat; assay type: in vitro ADME; conditions: at 30 μM
From the text: The objective of this study was to determine the human and rat pregnane X receptor (PXR) and human and rat aryl hydrocarbon receptor (AhR) receptor activation potential of Compound 1 Form A. The activation of PXR is a marker for induction of CYP3A4/5 and […] and the activation of AhR is a marker for induction of CYP1A.

T1 sequence (Q3UVX5 19-1203): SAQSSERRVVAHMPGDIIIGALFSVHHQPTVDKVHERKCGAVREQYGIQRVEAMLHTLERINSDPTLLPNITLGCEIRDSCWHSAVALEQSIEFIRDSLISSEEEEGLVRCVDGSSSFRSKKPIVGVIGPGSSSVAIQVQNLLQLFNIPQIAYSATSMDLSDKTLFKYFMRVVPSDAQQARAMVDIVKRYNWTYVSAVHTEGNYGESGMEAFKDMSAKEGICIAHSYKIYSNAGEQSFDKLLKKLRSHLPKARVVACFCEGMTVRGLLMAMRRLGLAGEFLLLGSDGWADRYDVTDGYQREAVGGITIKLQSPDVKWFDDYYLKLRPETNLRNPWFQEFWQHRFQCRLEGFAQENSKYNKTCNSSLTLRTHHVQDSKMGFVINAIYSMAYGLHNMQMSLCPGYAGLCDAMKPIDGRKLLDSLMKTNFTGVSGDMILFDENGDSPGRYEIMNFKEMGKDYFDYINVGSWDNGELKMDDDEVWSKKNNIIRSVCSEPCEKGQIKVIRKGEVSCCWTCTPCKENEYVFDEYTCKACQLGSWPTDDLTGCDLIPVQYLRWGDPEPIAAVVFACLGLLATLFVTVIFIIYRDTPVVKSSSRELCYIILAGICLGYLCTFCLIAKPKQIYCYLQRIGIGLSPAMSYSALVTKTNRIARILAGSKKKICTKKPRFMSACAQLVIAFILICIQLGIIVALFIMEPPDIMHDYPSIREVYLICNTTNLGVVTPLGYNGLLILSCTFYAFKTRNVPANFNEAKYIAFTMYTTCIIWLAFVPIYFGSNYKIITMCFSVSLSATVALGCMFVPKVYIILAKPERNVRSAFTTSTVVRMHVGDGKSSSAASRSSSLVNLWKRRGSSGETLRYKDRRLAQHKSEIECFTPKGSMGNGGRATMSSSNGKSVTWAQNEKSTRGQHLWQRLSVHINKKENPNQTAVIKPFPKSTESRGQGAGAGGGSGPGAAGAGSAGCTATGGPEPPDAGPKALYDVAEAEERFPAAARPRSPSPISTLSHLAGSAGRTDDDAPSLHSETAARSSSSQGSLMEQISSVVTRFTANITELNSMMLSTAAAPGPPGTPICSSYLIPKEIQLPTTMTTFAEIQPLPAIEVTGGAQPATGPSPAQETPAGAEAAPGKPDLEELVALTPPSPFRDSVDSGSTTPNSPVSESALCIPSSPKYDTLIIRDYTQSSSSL
Sequence of aryl hydrocarbon receptor (AhR) (P41738 10-853): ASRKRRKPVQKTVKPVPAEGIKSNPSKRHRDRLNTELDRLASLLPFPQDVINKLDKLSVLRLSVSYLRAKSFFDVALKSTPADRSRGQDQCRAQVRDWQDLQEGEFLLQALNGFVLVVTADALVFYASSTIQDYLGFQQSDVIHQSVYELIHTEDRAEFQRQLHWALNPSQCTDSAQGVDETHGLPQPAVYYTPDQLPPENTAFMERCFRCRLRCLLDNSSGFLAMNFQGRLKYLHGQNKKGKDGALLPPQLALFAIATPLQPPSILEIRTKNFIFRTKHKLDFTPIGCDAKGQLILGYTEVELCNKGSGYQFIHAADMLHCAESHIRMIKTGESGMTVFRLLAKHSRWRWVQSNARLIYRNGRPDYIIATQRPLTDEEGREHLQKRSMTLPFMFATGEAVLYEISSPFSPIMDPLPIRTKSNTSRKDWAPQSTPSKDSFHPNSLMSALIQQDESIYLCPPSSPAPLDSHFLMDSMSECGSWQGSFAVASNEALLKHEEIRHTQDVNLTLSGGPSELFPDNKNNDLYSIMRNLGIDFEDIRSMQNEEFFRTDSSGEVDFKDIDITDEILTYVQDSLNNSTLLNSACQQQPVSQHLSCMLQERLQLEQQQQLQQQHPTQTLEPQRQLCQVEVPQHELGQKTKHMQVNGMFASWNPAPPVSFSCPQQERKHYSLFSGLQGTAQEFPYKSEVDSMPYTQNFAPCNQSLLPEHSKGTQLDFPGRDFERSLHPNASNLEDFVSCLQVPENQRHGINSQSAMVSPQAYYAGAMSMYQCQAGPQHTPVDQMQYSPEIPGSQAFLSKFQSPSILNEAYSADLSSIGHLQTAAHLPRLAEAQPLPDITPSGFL
T2 sequence (P11712 whole entry): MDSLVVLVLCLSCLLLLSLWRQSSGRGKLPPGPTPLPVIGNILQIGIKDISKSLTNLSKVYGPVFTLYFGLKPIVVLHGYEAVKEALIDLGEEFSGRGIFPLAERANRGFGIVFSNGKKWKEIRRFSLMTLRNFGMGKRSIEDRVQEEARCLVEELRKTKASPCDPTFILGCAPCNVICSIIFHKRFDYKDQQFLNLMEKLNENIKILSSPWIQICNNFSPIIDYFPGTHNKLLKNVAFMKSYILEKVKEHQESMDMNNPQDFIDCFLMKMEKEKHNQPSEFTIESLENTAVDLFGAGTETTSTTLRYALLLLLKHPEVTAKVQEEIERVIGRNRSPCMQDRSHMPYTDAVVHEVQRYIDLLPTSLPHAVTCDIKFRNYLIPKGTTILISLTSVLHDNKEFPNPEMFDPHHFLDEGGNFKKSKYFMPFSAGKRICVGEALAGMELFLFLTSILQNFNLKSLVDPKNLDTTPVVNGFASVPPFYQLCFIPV
Sequence of CYP2C19 (P33261 whole entry): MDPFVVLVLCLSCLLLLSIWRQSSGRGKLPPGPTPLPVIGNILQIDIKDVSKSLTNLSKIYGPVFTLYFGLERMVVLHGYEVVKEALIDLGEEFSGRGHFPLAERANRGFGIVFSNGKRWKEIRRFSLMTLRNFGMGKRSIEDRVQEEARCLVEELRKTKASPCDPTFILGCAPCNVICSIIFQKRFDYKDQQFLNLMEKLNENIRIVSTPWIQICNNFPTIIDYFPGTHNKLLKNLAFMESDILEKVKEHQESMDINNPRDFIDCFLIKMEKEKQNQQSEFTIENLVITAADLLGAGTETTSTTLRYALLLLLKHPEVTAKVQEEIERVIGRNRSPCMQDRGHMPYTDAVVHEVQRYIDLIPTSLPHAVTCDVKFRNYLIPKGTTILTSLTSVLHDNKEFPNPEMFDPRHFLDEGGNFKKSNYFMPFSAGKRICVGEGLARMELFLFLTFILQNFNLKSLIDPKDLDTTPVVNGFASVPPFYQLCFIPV

SMILES: O=C1N[C@H](c2cncc(C#Cc3ccccc3)c2)[C@@H](c2ccccc2Cl)O1 [Compound 1, (4R,5R)-5-(2-chlorophenyl)-4-(5-(phenylethynyl)pyridin-3-yl)oxazolidin-2-one]
- free drug above the Ki (mGluR5; mice, 3.75 mg/kg b.i.d.): 25 fold
- free trough drug level (mGluR5; mice, 3.75 mg/kg b.i.d. oral): 15 nM
- receptor occupancy at 3.75 mg/kg (mGluR5; mice, 3.75 mg/kg b.i.d. oral, read-out: receptor occupancy throughout the dosing period): > 90%
- receptor occupancy at 3.75 mg/kg (mGluR5; mice, 3.75 mg/kg dose, oral, read-out: receptor occupancy at trough): > 90%
- doses occupying brain mGluR5 sites below adverse effect levels (mGluR5; oral, rodent and non-human primate): 250 fold
- solubility ([1]; aqueous with cosolvent or surfactant or cyclodextrin, 2-propanol/water 50:50, 20° C.): ~5 mg/mL (≈ 13.3 mM)
- solubility ([1]; aqueous with cosolvent or surfactant or cyclodextrin, acetone/water 50:50, 20° C.): ~5 mg/mL (≈ 13.3 mM)
- solubility ([1]; organic solvent or mixture, 2-butanol, 20° C.): 50 to 100 mg/mL (≈ 133 to 267 mM)
- solubility ([1]; organic solvent or mixture, 2-methyltetrahydrofuran (MeTHF), 20° C.): > 100 mg/mL
- solubility ([1]; organic solvent or mixture, 2-propanol/water 80:20, 20° C.): 50 to 100 mg/mL (≈ 133 to 267 mM)
- solubility ([1]; organic solvent or mixture, 2-propanol/water 90:10, 20° C.): 30 to 50 mg/mL (≈ 80 to 133 mM)
- solubility ([1]; organic solvent or mixture, acetone, 20° C.): > 100 mg/mL
- solubility ([1]; organic solvent or mixture, acetone/water 90:10, 20° C.): > 100 mg/mL
- solubility ([1]; organic solvent or mixture, acetonitrile, 20° C.): 50 to 100 mg/mL (≈ 133 to 267 mM)
- solubility ([1]; organic solvent or mixture, benzonitrile, 20° C.): > 100 mg/mL
- solubility ([1]; organic solvent or mixture, dichloromethane, 20° C.): > 100 mg/mL
- solubility ([1]; organic solvent or mixture, ethanol, 20° C.): > 100 mg/mL
- solubility ([1]; organic solvent or mixture, ethyl acetate, 20° C.): > 100 mg/mL
- solubility ([1]; organic solvent or mixture, heptane, 20° C.): < 2 mg/mL
- solubility ([1]; organic solvent or mixture, i-propyl acetate, 20° C.): 50 to 100 mg/mL (≈ 133 to 267 mM)
- solubility ([1]; organic solvent or mixture, isopropyl alcohol (IPA), 20° C.): 25 to 30 mg/mL (≈ 66.7 to 80 mM)
- solubility ([1]; organic solvent or mixture, methyl ethyl ketone (MEK), 20° C.): > 100 mg/mL
- solubility ([1]; organic solvent or mixture, methyl isobutyl ketone (MIK), 20° C.): > 100 mg/mL
- solubility ([1]; organic solvent or mixture, methyl tert-butyl ether (MTBE), 20° C.): 17 to 25 mg/mL (≈ 45.4 to 66.7 mM)
- solubility ([1]; organic solvent or mixture, t-Butyl acetate, 20° C.): 25 to 30 mg/mL (≈ 66.7 to 80 mM)
- solubility ([1]; organic solvent or mixture, tetrahydrofuran (THF), 20° C.): > 100 mg/mL
- solubility ([1]; organic solvent or mixture, toluene, 20° C.): 25 to 30 mg/mL (≈ 66.7 to 80 mM)
- solubility ([1]; water, 20° C.): < 2 mg/mL
- human equivalent dose (HED) of the rat NOAEL (in vivo): 140 mg
- NOAEL at 28 days (in vivo; rat): 15 mg/kg
- metabolism by CYP2C9 (CYP2C9): No evidence
- metabolism by CYP2C19 (CYP2C19): No evidence
- synaptic density, SV2A PET (hippocampal/brainstem [18F]SDM-8 SUVR-1) (dKI mice): fully recovered; also recorded: highly significant increase
- prevention of PAM-induced seizures, shown previously (C57/BI6J mice): prevents seizures
- normalization of expression patterns (neurons and glia): to a much greater extent in neurons than glia
- AhR activation, % of the positive control [2]: 0.946%
- mean maximum fold activation of AhR [2]: 1.42 fold
